# According to patent US20040023990A1, “Use of pyrazolo[4,3-d]pyrimidines” (priority 2000, published 2004):
smiles,measurement,value
"CCCc1nn(C)c2c(NCc3ccc(OC)c(Cl)c3)nc(CCC(=O)O)nc12 [Example 2, 3-[7-(3-chloro4-methoxybenzylamino)-1-methyl-3-propyl-1H-pyrazolo-[4,3-d]pyrimidin-5-yl]propionic acid]",melting point,178 °C
